Here are results for 18 molecules from patent US20120128630A1, “1-(6 MEMBERS AZO-HETEROCYCLIC)-PYRROLIN-2-ONE COMPOUNDS AS INHIBITORS OF HEPATITIS C NS5B POLYMERASE, THE PHARAMACEUTICAL COMPOSITION THEREOF AND THEIR THERAPEUTIC USE” (priority 2009, published 2012).

Structures are written as SMILES. Several values for one entry are separate records, joined by “and”; a condition that tells them apart may be missing. Equal entries are not always repeated. Where only a bound is given, the exact number is not on record here.

One data set relates to HCV replicon Luc Neo ET. The data set can be described thus: Luc Neo ET Replicon assay. The class given is cell-based, Hepatitis C virus. The conditions noted are these: Table 3, titled RdRp enzyme assay results, EC50_Replicon LucneoET, 72 hours with compound, luciferase. As to the method:
Human Hepatoma Huh-7 cell line was maintained in DMEM/HAMF-12 supplemented with 10% SVF, 4 mM glutamine, […] Na pyruvate, 1% penistreptomycine. HCV replicon containing Huh-7 cell lines Huh-9.13 and Luc Neo ET (Reblikon) were maintained in DMEM supplemented with 10% SVF, 2 mM glutamine, and 1×NEAA, 100 U/ml penicillin, and 100 μg/ml streptomycine. Replicon cells were maintained in medium supplemented with 1 mg/ml G418 for replicon Huh-9.13 and 0.5 mg/ml for Luc Neo et replicon unless indicated otherwise. Huh-7 and HCV replicon cell lines were maintained at 37° C. and 5% CO2 in a humidified atmosphere. Cells were dissociated at sub confluence with trypsin EDTA 1×.
Replicon Luc Neo ET is a bicistronic expression constructs (Lohmann et al, 1999, Science 285, 110-113). In brief, the structural genes of the HCV genome were replaced by heterologous sequences; the gene encoding the neomycin phosphotransferase (NPT) and the internal ribosome entry site (IRES) of the encephalomyocarditis virus (EMCV). The bicistronic construct is therefore composed of the following elements: HCV-IRES nucleotides 1-389, the NPT gene, the EMCV-IRES directing translation of downstream HCV sequences from NS2 or NS3 up to the authentic 3′ end of the genome. HCV Polyprotein harbours the cell culture adaptive mutations E1202G, T1280I, K1846T. G418-resistance is only possible with cells containing high amounts of replicon.
Cells were dissociated the day before addition of compounds and seeded in 96 well-plates at a final concentration of 77 777.77 cells.ml^−1.well^−2 in 90 μl final volume of culture medium per well and were maintained at 37° C. and 5% CO2 in a humidified atmosphere for 24 hours. 10 μl of compounds to be tested were added 24 hours after seeding. Final concentration of DMSO was 1%. Cells were incubated in the presence of compounds for 72 hours after which expression of firefly luciferase reporter gene was quantified. Briefly, culture medium was removed and cells were lysed by addition of 100 μl of lysis buffer containing 125 mM Tris Phosphate ph 7.8, 10 mM EDTA, 5 mM DTT, 50% glycerol and 5% Triton. Plates were vortexed 10 min at 1300 rpm. Cell lysat was transferred in OpaqueWhite Assay 96 well Flat Bottom plates. 100 μl of luciferin solution 1× were added to each well. Luciferin solution contained 40 mM Tris Phosphate ph 7.8, 0.2 mM EDTA, 67 mM DTT, 2.14 mM MgCl2, 5.4 mM MgSO4, 4.7×10^−4 M luciferin, 5.3×10^−4 M ATP and 2.7×10^−4 M Acetyl co enzyme A. Luminescence was immediately measured with Berthold Microlumat Plus LB 96V luminometer with an integration of 0.5 sec Inhibition was calculated using the formula:
% inhibition=1−[(RLUsample−RLUbackground)/(RLUsignal−RLUbackground)]
In general terms: A replicon is a self-replicating genome or part of one, used to study replication in cells.

The target of another data set is T1, HCV NS5B genotype 1b (Hepatitis C virus genotype 1b, UniProt Q9WMX2).
T1 construct: The protein was expressed with a 21 amino acid C-terminal deletion to remove transmembrane domain; expressed in transfected cells; host or cells: Huh-7
Put plainly: 3D-SCREEN assay (NS5B 3D-Screen platform, luciferase reporter gene). Format: cell-based. The conditions noted are these: EC50_3DS_NS5B. The method, boiled down:
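Huh-7 cells transiently co-transfected with NS5BΔ21/Gal4-DBD, 3D-Sensor peptide I4/VP16 and firefly luciferase reporter. Compounds added 2 h after seeding, 1% DMSO final, 24 h incubation. Luciferase luminescence read; % inhibition relative to no-compound signal.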

Setting [1] is: Table 1, 3D-SCREEN assay results, Huh-7 cells, 24 hours with compound, firefly luciferase reporter.
The mark [2] stands for this setting: Table 2, titled Replicon assay results.

What is called EC50 is the concentration giving half of the maximal effect. The melting point is the temperature, or range, at which the solid turns liquid. Consider `Cc1ccc(C(=O)C2=C(O)C(=O)N(c3ccc(C)nn3)C2c2ccc(C(C)C)cc2)cc1` (stereo not drawn) [Example 8, 3-hydroxy-5-(4-isopropyl-phenyl)-4-(4-methyl-benzoyl)-1-(6-methyl-pyridazin-3-yl)-1,5-dihydro-pyrrol-2-one], for which the melting point was 279 °C. The EC50 in the data set on HCV replicon Luc Neo ET (Hepatitis C virus, 72 h) was 3000 nM. The EC50 at HCV NS5B genotype 1b (setting [1]) was 2000 nM.

For the molecule `Cc1ccc(N2C(=O)C(O)=C(C(=O)c3ccc(C(C)C)cc3)C2c2ccc(C(C)C)cc2)nn1` (stereo not drawn) [Example 20, 3-hydroxy-4-(4-isopropyl-benzoyl)-5-(4-isopropyl-phenyl)-1-(6-methyl-pyridazin-3-yl)-1,5-dihydro-pyrrol-2-one], the melting point turned out to be 271 °C. Further, the EC50 with HCV replicon Luc Neo ET (Hepatitis C virus, 72 h) amounted to 100 nM. The concentration for a half-maximal effect (EC50) at HCV NS5B genotype 1b (setting [1]) is 400 nM.

As for `Cc1ccc(C(=O)C2=C(O)C(=O)N(c3ccc(C)nn3)C2c2ccc(OC(F)(F)F)cc2)cc1` (stereo not drawn) [Example 22, 3-hydroxy-4-(4-methyl-benzoyl)-1-(6-methyl-pyridazin-3-yl)-5-(4-trifluoromethoxy-phenyl)-1,5-dihydro-pyrrol-2-one], the melting point came to 269 °C. The EC50 in the data set on HCV replicon Luc Neo ET (Hepatitis C virus, 72 h) turned out to be 500 nM. Besides, the EC50 at HCV NS5B genotype 1b (setting [1]) was determined as 600 nM.

On to `Cc1ccc(N2C(=O)C(O)=C(C(=O)c3ccc(OC(F)(F)F)cc3)C2c2ccc(C(C)C)cc2)nn1` (stereo not drawn) [Example 25, 3-hydroxy-5-(4-isopropyl-phenyl)-1-(6-methyl-pyridazin-3-yl)-4-(4-trifluoromethoxy-benzoyl)-1,5-dihydro-pyrrol-2-one], for which the melting point stood at 269 °C. Further, the EC50 in the data set with HCV replicon Luc Neo ET (Hepatitis C virus, 72 h) stood at 200 nM. Also, the 50% effective concentration (EC50) at HCV NS5B genotype 1b (setting [1]) is 500 nM.

The molecule `Cc1ccc(N2C(=O)C(O)=C(C(=O)c3ccc(C(C)C)cc3)C2c2ccc(C(C)C)cc2)cn1` (stereo not drawn) [Example 48, 3-hydroxy-4-(4-isopropyl-benzoyl)-5-(4-isopropyl-phenyl)-1-(6-methyl-pyridin-3-yl)-1,5-dihydro-pyrrol-2-one] came in with a melting point of 252 to 254 °C. Further, the EC50 with HCV replicon Luc Neo ET is 1000 nM. In addition, at HCV NS5B genotype 1b (setting [1]), the EC50 is 700 nM.

The molecule `CC(=O)OC1=C(C(=O)c2ccc(C(C)C)cc2)C(c2ccc(C(C)C)cc2)N(c2ccc(C)nn2)C1=O` (stereo not drawn) [Example 56, Acetic acid 4-(4-isopropyl-benzoyl)-5-(4-isopropyl-phenyl)-1-(6-methyl-pyridazin-3-yl)-2-oxo-2,5-hydro-1H-pyrrol-3-yl ester] had a melting point of 215 °C. Moreover, the EC50 with HCV replicon Luc Neo ET (Hepatitis C virus, 72 h) was determined as 600 nM. On HCV NS5B genotype 1b (setting [1]), the concentration for a half-maximal effect (EC50) was 500 nM.

For `Cc1ccc(N2C(=O)C(O)=C(C(=O)c3ccc(C(C)C)cc3)C2c2ccc(OC(F)(F)F)cc2)nn1` (stereo not drawn) [Example 61, 3-hydroxy-4-(4-isopropyl-benzoyl)-1-(6-methyl-pyridazin-3-yl)-5-(4-trifluoromethoxy-phenyl)-1,5-dihydro-pyrrol-2-one], the melting point was 258 to 260 °C and 262 to 265 °C. The EC50 in the data set on HCV replicon Luc Neo ET (Hepatitis C virus, 72 h) was found to be 100 nM. In addition, at HCV NS5B genotype 1b (setting [1]), the EC50 was 70 nM.

On to `COc1ccc(C2C(C(=O)c3ccc(C(C)C)cc3)=C(O)C(=O)N2c2ccc(C)nn2)cc1` (stereo not drawn) [Example 62, 3-hydroxy-4-(4-isopropyl-benzoyl)-5-(4-methoxy-phenyl)-1-(6-methyl-pyridazin-3-yl)-1,5-dihydro-pyrrol-2-one], for which the melting point fell in the range of 263 to 267 °C. The EC50 with HCV replicon Luc Neo ET (Hepatitis C virus, 72 h) worked out at 900 nM. For the same molecule, the EC50 at HCV NS5B genotype 1b (setting [1]) came out at 800 nM.

The molecule `Cc1ccc(N2C(=O)C([O-])=C(C(=O)c3ccc(C(C)C)cc3)C2c2ccc(C(C)C)cc2)cn1.[Na+]` (stereo not drawn) [Example 67, Sodium; 4-(4-isopropyl-benzoyl)-5-(4-isopropyl-phenyl)-1-(6-methyl-pyridin-3-yl)-2-oxo-2,5-dihydro-1H-pyrrol-3-olate] gave a melting point of 215 °C. Further, in the data set with HCV replicon Luc Neo ET, the 50% effective concentration (EC50) is below 10000 nM. Besides, the EC50 on HCV NS5B genotype 1b (setting [1]) was determined as 3000 nM.

Molecule `CC(=O)OC1=C(C(=O)c2ccc(C)cc2)C(c2ccc(OC(F)(F)F)cc2)N(c2ccc(C)nn2)C1=O` (stereo not drawn) [Example 76, Acetic acid 4-(4-methyl-benzoyl)-1-(6-methyl-pyridazin-3-yl)-2-oxo-5-(4-trifluoromethoxy-phenyl)-2,5-dihydro-1H-pyrrol-3-yl ester] came in with a melting point of 165 to 166.5 °C. The EC50 in the data set on HCV replicon Luc Neo ET (Hepatitis C virus, 72 h) was below 10000 nM. Also, the EC50 on HCV NS5B genotype 1b (setting [1]) came out at 600 nM.

`Cc1ccc(N2C(=O)C(O)=C(C(=O)c3ccc(C(C)C)cc3)C2c2ccc(OC(F)(F)F)cc2)cn1` (stereo not drawn) [Example 77, 3-hydroxy-4-(4-isopropyl-benzoyl)-1-(6-methyl-pyridin-3-yl)-5-(4-trifluoromethoxy-phenyl)-1,5-dihydro-pyrrol-2-one]: the melting point fell in the range of 214 to 218 °C. Further, the EC50 with HCV replicon Luc Neo ET (Hepatitis C virus, 72 h) was below 10000 nM. The EC50 on HCV NS5B genotype 1b (setting [2]) is below 1000 nM.

Take `Cc1ccc(N2C(=O)C(O)=C(C(=O)c3ccc(-c4ccccc4)cc3)C2c2ccc(OC(F)(F)F)cc2)nn1` (stereo not drawn) [Example 79, 4-(biphenyl-4-carbonyl)-3-hydroxy-1-(6-methyl-pyridazin-3-yl)-5-(4-trifluoromethoxy-phenyl)-1,5-dihydro-pyrrol-2-one]: the melting point lay in the range of 226 to 232 °C. Besides, the EC50 with HCV replicon Luc Neo ET (Hepatitis C virus, 72 h) is below 10000 nM. At HCV NS5B genotype 1b (setting [1]), the EC50 was found to be 500 nM.

Regarding `Cc1ccc(N2C(=O)C(O)=C(C(=O)c3ccc(N4CCOCC4)cc3)C2c2ccc(OC(F)(F)F)cc2)nn1` (stereo not drawn) [Example 80, 3-hydroxy-1-(6-methyl-pyridazin-3-yl)-4-(4-morpholin-4-yl-benzoyl)-5-(4-trifluoromethoxy-phenyl)-1,5-dihydro-pyrrol-2-one], the melting point was 234 °C. Moreover, the EC50 in the data set with HCV replicon Luc Neo ET (Hepatitis C virus, 72 h) is below 10000 nM. Also, the EC50 on HCV NS5B genotype 1b (setting [1]) came out at 2000 nM.

For the molecule `Cc1ccc(N2C(=O)C(O)=C(C(=O)c3ccc(C(C)C)cc3)C2c2ccc(OC(F)F)cc2)nn1` (stereo not drawn) [Example 88, 5-(4-difluoromethoxy-phenyl)-3-hydroxy-4-(4-isopropyl-benzoyl)-1-(6-methyl-pyridazin-3-yl)-1,5-dihydro-pyrrol-2-one], the melting point is 263 to 265 °C. Further, the EC50 in the data set on HCV replicon Luc Neo ET (Hepatitis C virus, 72 h) was below 1000 nM. Also, the EC50 on HCV NS5B genotype 1b (setting [2]) is below 1000 nM.

Turning to `Cc1ccc(N2C(=O)C(O)=C(C(=O)c3ccc(C(C)C)cc3)C2c2ccc(OC(C)C)cc2)nn1` (stereo not drawn) [Example 89, 3-hydroxy-5-(4-isopropoxy-phenyl)-4-(4-isopropyl-benzoyl)-1-(6-methyl-pyridazin-3-yl)-1,5-dihydro-pyrrol-2-one], the melting point lay within 280 to 281 °C. The EC50 in the data set on HCV replicon Luc Neo ET (Hepatitis C virus, 72 h) is below 10000 nM. For the same molecule, the concentration for a half-maximal effect (EC50) at HCV NS5B genotype 1b (setting [2]) is below 10000 nM.

Molecule `Cc1ccc(N2C(=O)C(O)=C(C(=O)c3ccc(C(C)C)cc3)C2c2ccc(OC(C)(C)C)cc2)nn1` (stereo not drawn) [Example 90, 5-(4-tert-butoxyphenyl)-3-hydroxy-4-(4-isopropyl-benzoyl)-1-(6-methyl-pyridazin-3-yl)-1,5-dihydro-pyrrol-2-one] displayed a melting point of 276 to 277 °C. Moreover, in the data set on HCV replicon Luc Neo ET (Hepatitis C virus, 72 h), the EC50 is below 10000 nM. Further, the EC50 on HCV NS5B genotype 1b (setting [2]) was below 10000 nM.

`CCc1ccc(C(=O)C2=C(O)C(=O)N(c3ccc(C)nn3)C2c2ccc(OC(F)(F)F)cc2)cc1` (stereo not drawn) [Example 102, 4-(4-ethyl-benzoyl)-3-hydroxy-1-(6-methyl-pyridazin-3-yl)-5-(4-trifluoromethoxy-phenyl)-1,5-dihydro-pyrrol-2-one]: the melting point lay within 263 to 267 °C. Moreover, the EC50 with HCV replicon Luc Neo ET (Hepatitis C virus, 72 h) was below 1000 nM. This molecule gave an EC50 on HCV NS5B genotype 1b (setting [2]) below 1000 nM.

For the molecule `CCOc1ccc(C2C(C(=O)c3ccc(C(C)C)cc3)=C(O)C(=O)N2c2ccc(C)nn2)cc1` (stereo not drawn) [Example 104, 5-(4-ethoxy-phenyl)-3-hydroxy-4-(4-isopropyl-benzoyl)-1-(6-methyl-pyridazin-3-yl)-1,5-dihydro-pyrrol-2-one], the melting point amounted to 279 °C. Moreover, the EC50 in the data set on HCV replicon Luc Neo ET (Hepatitis C virus, 72 h) was below 1000 nM. This molecule yielded an EC50 on HCV NS5B genotype 1b (setting [2]) below 1000 nM.
